biological target: T1, Ca^2+ channel (Rattus norvegicus, UniProt P22002); test: verapamil binding study in rat heart membrane preparation; details: 0.25 nM [^3H]desmethoxyverapamil, read-out: verapamil binding study (Ca^2+ channel binding affinity, adverse effect)
T1 construct: from tissue; host or cells: rat heart membrane preparation
Procedure: The adverse effect on Ca^2+ channel binding affinity is determined by verapamil binding study in rat heart membrane preparation. More specifically, verapamil binding study is performed as previously described by Reynolds et al., (J. Pharmacol. Exp. Ther., 237, 731, (1986)). Briefly, incubations are initiated by the addition of tissue to tubes containing 0.25 nM [^3H]desmethoxyverapamil and various concentrations of compounds (total volume; 1 ml). Nonspecific binding is defined as radioligand binding remaining in the presence of 3-10 μM methoxyverapamil.

T1 sequence (P22002 whole entry, other chains not shown): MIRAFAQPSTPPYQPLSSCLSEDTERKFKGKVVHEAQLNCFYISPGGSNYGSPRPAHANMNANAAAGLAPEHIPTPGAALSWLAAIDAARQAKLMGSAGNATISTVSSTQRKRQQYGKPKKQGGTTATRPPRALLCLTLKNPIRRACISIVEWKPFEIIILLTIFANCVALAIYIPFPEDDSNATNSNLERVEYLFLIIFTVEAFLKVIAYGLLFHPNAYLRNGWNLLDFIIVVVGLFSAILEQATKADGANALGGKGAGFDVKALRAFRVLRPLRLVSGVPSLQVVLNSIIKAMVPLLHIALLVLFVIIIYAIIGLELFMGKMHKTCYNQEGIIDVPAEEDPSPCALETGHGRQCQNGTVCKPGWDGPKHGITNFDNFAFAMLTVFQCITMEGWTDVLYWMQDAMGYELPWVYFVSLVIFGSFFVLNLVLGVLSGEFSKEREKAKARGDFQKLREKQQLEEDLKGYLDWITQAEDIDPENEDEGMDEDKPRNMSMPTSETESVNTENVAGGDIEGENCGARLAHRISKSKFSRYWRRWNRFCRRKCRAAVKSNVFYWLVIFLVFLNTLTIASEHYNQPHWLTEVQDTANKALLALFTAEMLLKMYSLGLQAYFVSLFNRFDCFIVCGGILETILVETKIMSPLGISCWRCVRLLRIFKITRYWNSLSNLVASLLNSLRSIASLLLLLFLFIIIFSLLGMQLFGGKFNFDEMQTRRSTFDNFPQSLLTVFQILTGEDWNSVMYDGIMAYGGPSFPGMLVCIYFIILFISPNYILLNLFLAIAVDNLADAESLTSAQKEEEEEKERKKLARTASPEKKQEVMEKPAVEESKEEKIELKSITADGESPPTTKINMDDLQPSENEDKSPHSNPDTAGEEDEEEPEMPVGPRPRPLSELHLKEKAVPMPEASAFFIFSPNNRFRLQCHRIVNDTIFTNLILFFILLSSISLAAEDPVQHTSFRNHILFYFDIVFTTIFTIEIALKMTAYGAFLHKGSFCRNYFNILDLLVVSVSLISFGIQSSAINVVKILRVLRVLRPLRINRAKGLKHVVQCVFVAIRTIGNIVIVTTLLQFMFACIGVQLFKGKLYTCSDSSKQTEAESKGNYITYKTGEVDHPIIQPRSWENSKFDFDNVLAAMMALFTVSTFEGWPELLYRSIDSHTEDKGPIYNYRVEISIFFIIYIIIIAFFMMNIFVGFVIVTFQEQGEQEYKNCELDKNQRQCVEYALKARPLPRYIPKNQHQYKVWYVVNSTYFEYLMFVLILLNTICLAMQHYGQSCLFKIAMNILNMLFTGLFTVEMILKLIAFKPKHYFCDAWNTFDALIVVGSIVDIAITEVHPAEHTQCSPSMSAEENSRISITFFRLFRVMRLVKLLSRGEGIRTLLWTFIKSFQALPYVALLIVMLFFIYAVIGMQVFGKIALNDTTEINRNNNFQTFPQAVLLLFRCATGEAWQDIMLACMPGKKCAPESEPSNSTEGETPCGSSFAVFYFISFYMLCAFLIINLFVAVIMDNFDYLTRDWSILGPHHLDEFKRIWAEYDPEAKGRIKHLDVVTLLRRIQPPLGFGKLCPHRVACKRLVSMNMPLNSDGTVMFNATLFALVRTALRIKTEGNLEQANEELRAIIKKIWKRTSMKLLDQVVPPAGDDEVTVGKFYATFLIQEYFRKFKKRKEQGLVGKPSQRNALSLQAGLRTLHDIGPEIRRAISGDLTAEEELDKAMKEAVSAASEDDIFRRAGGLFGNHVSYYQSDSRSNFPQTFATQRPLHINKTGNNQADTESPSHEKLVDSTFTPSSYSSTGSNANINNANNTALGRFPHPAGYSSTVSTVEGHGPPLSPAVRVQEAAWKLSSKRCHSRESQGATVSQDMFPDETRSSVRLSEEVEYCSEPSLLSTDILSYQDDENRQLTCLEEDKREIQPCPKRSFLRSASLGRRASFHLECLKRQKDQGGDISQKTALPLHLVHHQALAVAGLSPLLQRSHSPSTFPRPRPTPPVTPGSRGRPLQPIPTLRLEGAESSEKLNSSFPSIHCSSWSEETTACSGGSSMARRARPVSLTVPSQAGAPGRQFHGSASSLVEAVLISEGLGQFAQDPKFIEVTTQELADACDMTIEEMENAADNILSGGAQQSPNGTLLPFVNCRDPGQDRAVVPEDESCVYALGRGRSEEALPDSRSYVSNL
T1 sequence (P54290 25-944 partner limits assumed, other chains not shown): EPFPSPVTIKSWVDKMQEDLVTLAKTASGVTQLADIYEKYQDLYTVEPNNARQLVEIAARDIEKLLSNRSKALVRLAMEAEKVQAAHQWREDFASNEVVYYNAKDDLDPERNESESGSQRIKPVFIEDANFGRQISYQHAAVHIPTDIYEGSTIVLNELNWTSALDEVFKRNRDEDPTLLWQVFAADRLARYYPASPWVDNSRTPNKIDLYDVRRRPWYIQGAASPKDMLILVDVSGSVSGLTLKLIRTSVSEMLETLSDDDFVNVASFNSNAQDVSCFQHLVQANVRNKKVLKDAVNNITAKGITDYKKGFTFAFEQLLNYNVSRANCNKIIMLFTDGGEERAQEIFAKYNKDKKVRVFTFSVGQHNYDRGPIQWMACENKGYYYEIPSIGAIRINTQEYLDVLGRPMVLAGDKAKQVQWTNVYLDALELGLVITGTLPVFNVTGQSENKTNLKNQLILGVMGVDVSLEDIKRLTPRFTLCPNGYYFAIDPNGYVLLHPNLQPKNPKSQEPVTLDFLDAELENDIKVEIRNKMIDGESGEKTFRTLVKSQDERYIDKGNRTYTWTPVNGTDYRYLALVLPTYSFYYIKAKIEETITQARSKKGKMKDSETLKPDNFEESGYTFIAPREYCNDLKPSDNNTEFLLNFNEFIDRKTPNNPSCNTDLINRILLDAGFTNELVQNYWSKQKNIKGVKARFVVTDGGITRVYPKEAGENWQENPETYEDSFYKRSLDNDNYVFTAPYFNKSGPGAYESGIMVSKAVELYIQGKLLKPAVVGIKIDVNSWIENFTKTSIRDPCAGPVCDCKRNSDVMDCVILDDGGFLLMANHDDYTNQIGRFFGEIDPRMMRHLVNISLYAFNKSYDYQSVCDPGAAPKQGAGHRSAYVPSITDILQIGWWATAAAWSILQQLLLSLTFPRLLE
T1 sequence (P54290 945-1091 partner limits assumed, other chains not shown): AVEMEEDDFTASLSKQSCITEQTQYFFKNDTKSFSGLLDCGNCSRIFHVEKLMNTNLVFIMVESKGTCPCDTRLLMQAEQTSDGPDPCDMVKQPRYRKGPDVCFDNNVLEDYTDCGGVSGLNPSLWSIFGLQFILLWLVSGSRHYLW

SMILES | IC50 [nM]
COc1cc2c(cc1CN[C@H]1CCCN[C@H]1c1ccccc1)N(C)C(=O)CC2.Cl.Cl [Compound 21, (2S,3S)-3-(6-Methoxy-1-methyl-2-oxo-1,2,3,4-tetrahydroquinolin-7-yl)methylamino-2-phenylpiperidine Dihydrochloride] | > 300

test system: gerbils; test: tapping test in gerbils; format: in vivo, gerbil; details: % inhibition at 0.3 mg/kg scoring
Procedure: More specifically, gerbils are lightly anesthetized with ether and the skull surface is exposed. […] Following injection, gerbils are placed in 1 L beaker individually and monitored for repetitive hind paw tapping. Some compounds prepared in the following Examples were tested in accordance with these testing methods.

SMILES | [Sar^9, Met(O2)^11]substance P-induced tapping test, % inhibition [%]
COc1cc2c(cc1CN[C@H]1CCCN[C@H]1c1ccccc1)N(C)C(=O)CC2.Cl.Cl [Compound 21, (2S,3S)-3-(6-Methoxy-1-methyl-2-oxo-1,2,3,4-tetrahydroquinolin-7-yl)methylamino-2-phenylpiperidine Dihydrochloride] | 52

test system: not given; test: not given; details: not given

SMILES | melting point [°C]
COc1cc2c(cc1CN[C@H]1C3CCN(CC3)[C@H]1C(c1ccccc1)c1ccccc1)N(C)C(=O)CC2 | 136 to 139
COc1cc2ccc(=O)n(C)c2cc1CN[C@H]1C2CCN(CC2)[C@H]1C(c1ccccc1)c1ccccc1 | 125 to 128
COc1cc2ccc(=O)n(C)c2cc1CN[C@H]1CCCN[C@H]1c1ccccc1.Cl.Cl | 260 to 263
COc1cc2c(cc1CN[C@H]1CCCN[C@H]1c1ccccc1)N(C(C)C)C(=O)CC2.Cl.Cl | 257 to 260
CN1C(=O)CCc2cc(OC(F)F)c(CN[C@H]3CCCN[C@H]3c3ccccc3)cc21.Cl.Cl | 238 to 240
COc1cc2c(cc1CN[C@H]1CCCN[C@H]1c1ccccc1)N(CC(F)(F)F)C(=O)CC2.Cl.Cl | 243 to 245
COc1cc2c(cc1CN[C@H]1CCCN[C@H]1c1ccccc1)N(C)C(=S)CC2.Cl.Cl | 245 to 246
COc1cc2c(cc1CN[C@H]1CCCN[C@H]1c1ccccc1)N(C)C(=O)CCC2.Cl.Cl | 236 to 238
COc1cc2c(cc1CN[C@H]1CCCN[C@H]1c1ccccc1)CCC(=O)N2C.Cl.Cl | 243 to 244
COc1cc2c(cc1CN[C@H]1CCCN[C@H]1c1ccccc1)C(C(F)(F)F)CC(=O)N2C.Cl.Cl (stereo partly drawn) | 255 to 256
COc1cc2c(cc1CN[C@H]1CCCN[C@H]1c1ccccc1)N(C)C(=O)OC2.Cl.Cl | 235 to 237
COc1cc2c(cc1CN[C@H]1CCCN[C@H]1c1ccccc1)N(C)C(=O)SC2.Cl.Cl | 252 to 254
COc1cc2c(cc1CN[C@H]1CCCN[C@H]1c1ccccc1)C(C)(C)C(=S)N2C.Cl.Cl | 234 to 236
COc1cc2c(cc1CN[C@H]1CCCN[C@H]1c1ccccc1)CCC(=S)N2C.Cl.Cl | 219 to 221
COc1cc2c(cc1CN[C@H]1CCCN[C@H]1c1ccccc1)N(C)C(=O)CC2.Cl.Cl [Compound 21, (2S,3S)-3-(6-Methoxy-1-methyl-2-oxo-1,2,3,4-tetrahydroquinolin-7-yl)methylamino-2-phenylpiperidine Dihydrochloride] | 265 to 268

biological target: T2, substance P receptor sites in IM-9 cells (Homo sapiens, UniProt P25103); test: IM-9 binding assay (inhibition of [3H]SP binding); details: human IM-9 cells, 0.56 nM [^3H]SP, 120 min at 4° C.
T2 construct: endogenous in cells; host or cells: IM-9 cells (human)
T2 sequence (P25103 whole entry): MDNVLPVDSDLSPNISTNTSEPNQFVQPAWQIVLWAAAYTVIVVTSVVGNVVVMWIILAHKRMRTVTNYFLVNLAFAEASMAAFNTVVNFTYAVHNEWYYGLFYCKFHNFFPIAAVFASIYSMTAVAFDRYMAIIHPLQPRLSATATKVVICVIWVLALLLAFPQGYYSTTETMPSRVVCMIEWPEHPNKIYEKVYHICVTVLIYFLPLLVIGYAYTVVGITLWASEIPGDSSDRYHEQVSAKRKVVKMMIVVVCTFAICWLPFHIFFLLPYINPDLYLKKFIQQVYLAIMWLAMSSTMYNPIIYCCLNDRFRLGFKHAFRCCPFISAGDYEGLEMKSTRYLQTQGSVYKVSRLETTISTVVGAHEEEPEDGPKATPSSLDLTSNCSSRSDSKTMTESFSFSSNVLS
Procedure: The activity of the compounds of the present invention, as substance P antagonists, is determined by their ability to inhibit the binding of substance P at its receptor sites in IM-9 cells employing radioactive ligands. The substance P antagonist activity of the herein described compounds is evaluated by using the standard assay procedure described by D. G. Payan et al., as reported in J. Immunolocy, 133, 3260 (1984). This method essentially involves determining the concentration of the individual compound required to reduce by 50% the amount of radiolabeled substance P ligands at their receptor sites in said isolated cow tissues or IM-9 cells, thereby affording characteristic IC50 values for each compound tested. More specifically, inhibition of [^3H]SP binding to human IM-9 cells by compounds are determined in assay buffer (50 mM Tris-HCl (pH 7.4), 1 mM MnCl2, 0.02% bovine serum albumin, bacitracin (40 μg/ml), leupeptin (4 μg/ml), chymostatin (2 μg/ml) and phosphoramidon (30 μg/ml)). The reaction is initiated by the addition of cells to assay buffer containing 0.56 nM [^3H]SP and various concentrations of compounds (total volume; 0.5 ml) and allowed to incubate for 120 min at 4° C. […] Nonspecific binding is defined as the radioactivity remaining in the presence of 1 μM SP. The filters are placed into tubes and counted using liquid scintillation counter.

SMILES | IC50 [nM]
COc1cc2c(cc1CN[C@H]1CCCN[C@H]1c1ccccc1)N(C)C(=O)CC2.Cl.Cl [Compound 21, (2S,3S)-3-(6-Methoxy-1-methyl-2-oxo-1,2,3,4-tetrahydroquinolin-7-yl)methylamino-2-phenylpiperidine Dihydrochloride] | < 0.1

— patent US20030105124A1, “Substituted benzolactam compounds” (priority 2000, published 2003)
